Laboratory results: the supplement of paper PMC8149375

How the values were obtained:
Settings in all cases: treatment: drug + dasatinib (fixed dose, not stated); 5 days
SN12C [1] = test: GI50 of drug in presence of dasatinib; higher = less potent
Protocol: (§1)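 Primary HTS combination arm: 8 RCC cell lines treated with 8 doses (up to 10 uM) of each library drug plus a fixed dose of dasatinib (dose not stated) for 5 days; viability read by CellTiter-Glo and normalised to DMSO. GI50 was fitted with XLfit, AUC is the area under the dose-response curve, and minimum viability is the lowest fraction of DMSO viability across doses.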

UO-31 [2] = test: as above
Protocol: as §1

TK-10 [3] = test: as above
Protocol: as §1

A498 [4] = test: as above
Protocol: as §1

786-O [5] = test: as above
Protocol: as §1

769-P [6] = test: as above
Protocol: as §1

ACHN [7] = test: as above
Protocol: as §1

CAKI-1 [8] = test: as above
Protocol: as §1

SN12C [9] = test: AUC of dose-response viability curve, drug + dasatinib, normalised to DMSO (arbitrary (AUC of normalised viability)); higher = less growth inhibition
Protocol: as §1

UO-31 [10] = test: as above
Protocol: as §1

TK-10 [11] = test: as above
Protocol: as §1

A498 [12] = test: as above
Protocol: as §1

786-O [13] = test: as above
Protocol: as §1

769-P [14] = test: as above
Protocol: as §1

ACHN [15] = test: as above
Protocol: as §1

CAKI-1 [16] = test: as above
Protocol: as §1

SN12C [17] = test: minimum viability across doses, drug + dasatinib, relative to DMSO (fraction); higher = less growth inhibition
Protocol: as §1

UO-31 [18] = test: as above
Protocol: as §1

TK-10 [19] = test: as above
Protocol: as §1

A498 [20] = test: as above
Protocol: as §1

786-O [21] = test: as above
Protocol: as §1

769-P [22] = test: as above
Protocol: as §1

ACHN [23] = test: as above
Protocol: as §1

CAKI-1 [24] = test: as above
Protocol: as §1

Structure (SMILES)	GI50 of drug (786-O [5])	GI50 of drug (ACHN [7])	GI50 of drug (SN12C [1])	GI50 of drug (UO-31 [2])	GI50 of drug (TK-10 [3])	GI50 of drug (A498 [4])	GI50 of drug (769-P [6])	GI50 of drug (CAKI-1 [8])	AUC of dose-response viability curve (SN12C [9])	AUC of dose-response viability curve (UO-31 [10])	AUC of dose-response viability curve (TK-10 [11])	AUC of dose-response viability curve (A498 [12])	AUC of dose-response viability curve (786-O [13])	AUC of dose-response viability curve (769-P [14])	AUC of dose-response viability curve (ACHN [15])	AUC of dose-response viability curve (CAKI-1 [16])	minimum viability across doses (SN12C [17])	minimum viability across doses (UO-31 [18])	minimum viability across doses (TK-10 [19])	minimum viability across doses (A498 [20])	minimum viability across doses (786-O [21])	minimum viability across doses (769-P [22])	minimum viability across doses (ACHN [23])	minimum viability across doses (CAKI-1 [24])
CCc1cc2c(cc1N1CCC(N3CCOCC3)CC1)C(C)(C)c1[nH]c3cc(C#N)ccc3c1C2=O + Cc1nc(Nc2ncc(C(=O)Nc3c(C)cccc3Cl)s2)cc(N2CCN(CCO)CC2)n1 [dasatinib]	> 10000 nM	659 nM	> 10000 nM	7800 nM	5110 nM	> 10000 nM	> 10000 nM	2340 nM	2.45	5.15	2.35	4.59	2.35	2.47	1.82	2.04	0.675	0.0552	0.377	1.12	0.614	0.535	0.247	0.311
CN1CCN(c2cccc(Nc3nc4c(-c5ccc(S(C)(=O)=O)cc5)cccn4n3)c2)CC1 + Cc1nc(Nc2ncc(C(=O)Nc3c(C)cccc3Cl)s2)cc(N2CCN(CCO)CC2)n1 [dasatinib]	5280 nM	3.78 nM	> 10000 nM	3160 nM	1250 nM	> 10000 nM	4170 nM	704 nM	2.37	3.59	2.12	3.99	2.21	2.27	1.23	1.84	0.246	0.0195	0.174	1.02	0.443	0.293	0.0965	0.0803
Cc1cc(CN2CCN(c3c(Br)cnc4[nH]c(-c5ccc(N6CCN(C)CC6)cc5)nc34)CC2)no1 + Cc1nc(Nc2ncc(C(=O)Nc3c(C)cccc3Cl)s2)cc(N2CCN(CCO)CC2)n1 [dasatinib]	232 nM	141 nM	626 nM	2450 nM	1820 nM	2010 nM	504 nM	231 nM	1.78	3.64	2.24	3.1	1.52	1.76	1.5	1.57	0.00484	0.0168	0.198	0.0164	0.00361	0.019	0.0106	0.00433
Cc1c(NC(=O)OC[C@@H]2COCCN2)cn2ncnc(Nc3ccc4c(cnn4Cc4cccc(F)c4)c3)c12.Cl + Cc1nc(Nc2ncc(C(=O)Nc3c(C)cccc3Cl)s2)cc(N2CCN(CCO)CC2)n1 [dasatinib]	7250 nM	230 nM	> 10000 nM	5460 nM	1140 nM	> 10000 nM	652 nM	2430 nM	2.47	2.98	2.31	3.28	2.62	2.01	1.84	2.24	0.662	0.251	0.19	0.858	0.444	0.157	0.249	0.441
Cc1cc2c(F)c(Oc3ncnn4cc(OC[C@@H](C)O)c(C)c34)ccc2[nH]1 + Cc1nc(Nc2ncc(C(=O)Nc3c(C)cccc3Cl)s2)cc(N2CCN(CCO)CC2)n1 [dasatinib]	> 10000 nM	1040 nM	> 10000 nM	> 10000 nM	> 10000 nM	> 10000 nM	> 10000 nM	6470 nM	2.39	3.43	2.68	3.38	2.65	2.59	1.8	2.3	0.621	0.528	0.693	0.789	0.656	0.682	0.343	0.179
Cc1cc2c(F)c(Oc3ncnn4cc(OC[C@@H](C)OC(=O)[C@H](C)N)c(C)c34)ccc2[nH]1 + Cc1nc(Nc2ncc(C(=O)Nc3c(C)cccc3Cl)s2)cc(N2CCN(CCO)CC2)n1 [dasatinib]	> 10000 nM	1050 nM	> 10000 nM	9860 nM	> 10000 nM	> 10000 nM	> 10000 nM	7600 nM	2.47	3.27	2.69	3.16	2.48	2.41	1.89	2.59	0.605	0.457	0.674	0.733	0.504	0.617	0.316	0.431
COCCOc1ccc2c(c1)ncn2-c1ccc2cccc(N3CCC(N)CC3)c2n1 + Cc1nc(Nc2ncc(C(=O)Nc3c(C)cccc3Cl)s2)cc(N2CCN(CCO)CC2)n1 [dasatinib]	683 nM	85.4 nM	1690 nM	2910 nM	1810 nM	3200 nM	1880 nM	471 nM	2.36	3.4	2.2	2.84	1.86	2.23	1.73	1.85	0.041	0.0088	0.261	0.0463	0.00646	0.123	0.0189	0.2
Nc1nccc(Oc2ccc(NC(=O)c3c[nH]cc(-c4ccc(F)cc4)c3=O)cc2F)c1Cl + Cc1nc(Nc2ncc(C(=O)Nc3c(C)cccc3Cl)s2)cc(N2CCN(CCO)CC2)n1 [dasatinib]	7600 nM	5540 nM	> 10000 nM	> 10000 nM	> 10000 nM	> 10000 nM	5580 nM	4030 nM	2.34	4.48	2.52	3.3	2.28	2.29	2.2	2.03	0.559	0.717	0.56	0.617	0.44	0.349	0.395	0.323
NC1(Cc2ccc(Cl)cc2)CCN(c2ncnc3[nH]ccc23)CC1 + Cc1nc(Nc2ncc(C(=O)Nc3c(C)cccc3Cl)s2)cc(N2CCN(CCO)CC2)n1 [dasatinib]	353 nM	1480 nM	4470 nM	3230 nM	2130 nM	8070 nM	5140 nM	2550 nM	2.36	3.84	2.38	3.16	1.97	2.5	2.04	2.19	0.356	0.0115	0.207	0.401	0.00351	0.323	0.165	0.202

Second part, led by results:

GI50 of drug (786-O [5])	GI50 of drug (ACHN [7])	Structure (SMILES)	GI50 of drug (SN12C [1])	GI50 of drug (UO-31 [2])	GI50 of drug (TK-10 [3])	GI50 of drug (A498 [4])	GI50 of drug (769-P [6])	GI50 of drug (CAKI-1 [8])	AUC of dose-response viability curve (SN12C [9])	AUC of dose-response viability curve (UO-31 [10])	AUC of dose-response viability curve (TK-10 [11])	AUC of dose-response viability curve (A498 [12])	AUC of dose-response viability curve (786-O [13])	AUC of dose-response viability curve (769-P [14])	AUC of dose-response viability curve (ACHN [15])	AUC of dose-response viability curve (CAKI-1 [16])	minimum viability across doses (SN12C [17])	minimum viability across doses (UO-31 [18])	minimum viability across doses (TK-10 [19])	minimum viability across doses (A498 [20])	minimum viability across doses (786-O [21])	minimum viability across doses (769-P [22])	minimum viability across doses (ACHN [23])	minimum viability across doses (CAKI-1 [24])
25.2 nM	15 nM	CCCCOc1c(C(=O)c2c(F)cc(C)cc2F)cnc2[nH]ncc12 + Cc1nc(Nc2ncc(C(=O)Nc3c(C)cccc3Cl)s2)cc(N2CCN(CCO)CC2)n1 [dasatinib]	> 10000 nM	2650 nM	322 nM	> 10000 nM	> 10000 nM	2580 nM	2.47	3.38	1.89	3.45	1.09	2.26	1.18	1.94	0.565	0.182	0.377	0.795	0.0144	0.52	0.135	0.378
9120 nM	3030 nM	COCC(=O)NC/C=C/c1ccc2ncnc(Nc3ccc(Oc4ccc(C)nc4)c(C)c3)c2c1 + Cc1nc(Nc2ncc(C(=O)Nc3c(C)cccc3Cl)s2)cc(N2CCN(CCO)CC2)n1 [dasatinib]	> 10000 nM	> 10000 nM	3970 nM	> 10000 nM	2130 nM	6790 nM	2.48	3.68	2.41	3.67	2.46	2.18	1.88	2.26	0.632	0.653	0.406	0.925	0.479	0.253	0.386	0.492
953 nM	162 nM	CN(C)c1ccc(-c2nc3c(N4CCN(CC(=O)Nc5nccs5)CC4)c(Cl)cnc3[nH]2)cc1 + Cc1nc(Nc2ncc(C(=O)Nc3c(C)cccc3Cl)s2)cc(N2CCN(CCO)CC2)n1 [dasatinib]	976 nM	2840 nM	4030 nM	3350 nM	1950 nM	334 nM	2.03	3.26	2.34	2.88	1.91	2.19	1.53	1.69	0.2	0.107	0.487	0.281	0.26	0.307	0.145	0.0775
4460 nM	342 nM	O=C(NOCC1CC1)c1ccc(F)c(F)c1Nc1ccc(I)cc1Cl + Cc1nc(Nc2ncc(C(=O)Nc3c(C)cccc3Cl)s2)cc(N2CCN(CCO)CC2)n1 [dasatinib]	1520 nM	2610 nM	4600 nM	3190 nM	1780 nM	1480 nM	2.07	2.72	2.4	2.51	2.46	2.12	1.8	2.04	0.298	0.174	0.367	0.306	0.431	0.197	0.224	0.13
552 nM	1830 nM	Nc1nc(NCCNc2ncc(-n3ccnc3)c(-c3ccc(Cl)cc3Cl)n2)ccc1[N+](=O)[O-] + Cc1nc(Nc2ncc(C(=O)Nc3c(C)cccc3Cl)s2)cc(N2CCN(CCO)CC2)n1 [dasatinib]	7550 nM	1600 nM	1590 nM	9900 nM	1540 nM	1230 nM	2.28	3.5	2.25	3.68	1.93	2.13	1.88	2	0.268	0.0119	0.0534	0.474	0.00601	0.0308	0.0281	0.0567
